Assays:
Type in all cases: in vivo
[1] = tested on: wheat; assay: Test Example 4: phytotoxicity to upland crop plants, treatment after emergence; settings: dosage 5 kg/ha, sprayed after emergence, judged 14 days after treatment
Procedure, shortened: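 Scores of weed-killing rate, with crop phytotoxicity, come from inspection 14 days after plants in soil vats, grown to specified leaf stages, are sprayed with a formulation holding the compound at a prescribed concentration.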

[2] = tested on: soybean plant; assay: as above; settings: dosage 5 kg/ha, sprayed after emergence, judged 14 days after treatment
Procedure, shortened: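 Post-emergence foliar spray at a prescribed concentration, applied once the sown weeds and soybean reached defined leaf stages in soil vats; herbicidal effect and soybean injury scored after 14 days.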

[3] = tested on: bulrush (Scirpus juncoides Roxb.); assay: Test Example 2: herbicidal effect on paddy field weeds after emergence; settings: Dosage 5 kg/ha; one-leaved stage; 21 days after treatment
Procedure, shortened: (§1)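 Weeds in flooded paddy-soil pots were grown to the one-leaved stage, then the soil was treated with the compound solution at a set dosage.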

[4] = tested on: monochoria (Monochoria vaginalis Presl); assay: as above; settings: Dosage 5 kg/ha; one-leaved stage; 21 days after treatment
Procedure, shortened: as §1

[5] = tested on: barnyard grass (Echinochloa crus-galli Beauv.); assay: as above; settings: Dosage 5 kg/ha; one-leaved stage; 21 days after treatment
Procedure, shortened: as §1

[6] = tested on: cocklebur (Xanthium strumarium L.), Xs; assay: Test Example 3: herbicidal effect on upland weeds before emergence; settings: dosage 5 kg/ha
Procedure, shortened: (§2)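 Steps: sow upland weed seeds; spray liquid formulation of active ingredient at prescribed concentration prior to emergence; after 14 days, calculate weed-killing rate; judge herbicidal effect.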

[7] = tested on: barnyard grass (Echinochloa crus-galli Beauv.), Ec; assay: as above; settings: dosage 5 kg/ha
Procedure, shortened: as §2

[8] = tested on: velvetleaf (Abutilon theophtasti L.), At; assay: as above; settings: dosage 5 kg/ha
Procedure, shortened: as §2

[9] = tested on: cleavers (Galium aparine L.), Ga; assay: as above; settings: dosage 5 kg/ha
Procedure, shortened: as §2

[10] = tested on: bird's eye speedwell (Veronica persica Poir.), Vp; assay: as above; settings: dosage 5 kg/ha
Procedure, shortened: as §2

[11] = tested on: forxtail grass (Alopecurus aequalis var. amurensis Ohwi), Am; assay: as above; settings: foxtail grass, dosage 5 kg/ha
Procedure, shortened: as §2

[12] = tested on: wheat (Wh); assay: Test Example 3: phytotoxicity to upland crop plants, treatment before emergence; settings: dosage 5 kg/ha
Procedure, shortened: (§3)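 Phytotoxicity scores for soybean and wheat were assigned by a set criterion 14 days after a pre-emergence spray of a liquid preparation containing the test compound at a prescribed concentration.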

[13] = tested on: soybean plant (So); assay: as above; settings: dosage 5 kg/ha
Procedure, shortened: as §3

[14] = tested on: bulrush (Scirpus juncoides Roxb.); assay: Test Example 1: herbicidal effect on paddy field weeds before emergence; settings: Dosage 5 kg/ha
Procedure, shortened: (§4)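 Soil in pots is brought to paddy state and seeded with barnyard grass and bulrush; before germination, the soil receives a predetermined dosage of test compound in solution. After twenty-one days, control rate relative to untreated pots is calculated and graded.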

[15] = tested on: barnyard grass (Echinochloa crus-galli Beauv.); assay: as above; settings: Dosage 5 kg/ha
Procedure, shortened: as §4

[16] = tested on: cocklebur (Xanthium strumarium L.), Xs; assay: Test Example 4: herbicidal effect on upland weeds after emergence; settings: dosage 5 kg/ha; sprayed after emergence; judged 14 days after treatment
Procedure, shortened: (§5)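 Seeds sown in soil and covered. Plants raised to specified leaf stages. Agent with test compound at a prescribed concentration sprayed. Herbicidal effect and crop damage scored after 14 days as weed-killing rate.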

[17] = tested on: barnyard grass (Echinochloa crus-galli Beauv.), Ec; assay: as above; settings: dosage 5 kg/ha; sprayed after emergence; judged 14 days after treatment
Procedure, shortened: as §5

[18] = tested on: velvetleaf (Abutilon theophtasti L.), At; assay: as above; settings: dosage 5 kg/ha; sprayed after emergence; judged 14 days after treatment
Procedure, shortened: as §5

[19] = tested on: cleavers (Galium aparine L.), Ga; assay: as above; settings: dosage 5 kg/ha; sprayed after emergence; judged 14 days after treatment
Procedure, shortened: as §5

[20] = tested on: bird's eye speedwell (Veronica persica Poir.), Vp; assay: as above; settings: dosage 5 kg/ha; sprayed after emergence; judged 14 days after treatment
Procedure, shortened: as §5

[21] = tested on: forxtail grass (Alopecurus aequalis var. amurensis Ohwi), Am; assay: as above; settings: dosage 5 kg/ha; sprayed after emergence; judged 14 days after treatment
Procedure, shortened: as §5

| Structure (SMILES) | Phytotoxicity Wh [1] | Phytotoxicity So [2] | Post-emergence treatment Bulrush (herbicidal effect) [3] | Post-emergence treatment Monochoria (herbicidal effect) [4] | Post-emergence treatment Barnyard grass (herbicidal effect) [5] | Herbicidal effect Xs [6] | Herbicidal effect Ec [7] | Herbicidal effect At [8] | Herbicidal effect Ga [9] | Herbicidal effect Vp [10] | Herbicidal effect Am [11] | Phytotoxicity Wh [12] | Phytotoxicity So [13] | Pre-emergence treatment Bulrush (herbicidal effect) [14] | Pre-emergence treatment Barnyard grass (herbicidal effect) [15] | Herbicidal effect Xs [16] | Herbicidal effect Ec [17] | Herbicidal effect At [18] | Herbicidal effect Ga [19] | Herbicidal effect Vp [20] | also measured |
| --- | --- | --- | --- | --- | --- | --- | --- | --- | --- | --- | --- | --- | --- | --- | --- | --- | --- | --- | --- | --- | --- |
| CCNC(=O)c1nc2sccc2cc1C(=O)Nc1c(CC)ccc(Cl)c1CC [compound 798] | 5 (Crop-killing rate is 100%.) | 4 (Crop-killing rate is 90-99%.) | 5 (Weed-killing rate is 100%.) | 5 (Weed-killing rate is 100%.) | 5 (Weed-killing rate is 100%.) | 5 (Weed-killing rate is 100%.) | 5 (Weed-killing rate is 100%.) | 5 (Weed-killing rate is 100%.) | 5 (Weed-killing rate is 100%.) | 5 (Weed-killing rate is 100%.) | 5 (Weed-killing rate is 100%.) | 5 (Crop-killing rate is 100%.) | 4 (Crop-killing rate is 90-99%.) | 5 (Weed-killing rate is 100%.) | 5 (Weed-killing rate is 100%.) | 5 (Weed-killing rate is 100%.) | 5 (Weed-killing rate is 100%.) | 5 (Weed-killing rate is 100%.) | 5 (Weed-killing rate is 100%.) | 5 (Weed-killing rate is 100%.) | Herbicidal effect Am [21]: 5 (Weed-killing rate is 100%.) |
| CCCNC(=O)c1nc2sccc2cc1C(=O)Nc1c(CC)ccc(Cl)c1CC [compound 799] | 5 (Crop-killing rate is 100%.) | 5 (Crop-killing rate is 100%.) | 5 (Weed-killing rate is 100%.) | 5 (Weed-killing rate is 100%.) | 5 (Weed-killing rate is 100%.) | 5 (Weed-killing rate is 100%.) | 5 (Weed-killing rate is 100%.) | 5 (Weed-killing rate is 100%.) | 5 (Weed-killing rate is 100%.) | 5 (Weed-killing rate is 100%.) | 5 (Weed-killing rate is 100%.) | 5 (Crop-killing rate is 100%.) | 5 (Crop-killing rate is 100%.) | 5 (Weed-killing rate is 100%.) | 5 (Weed-killing rate is 100%.) | 5 (Weed-killing rate is 100%.) | 5 (Weed-killing rate is 100%.) | 5 (Weed-killing rate is 100%.) | 5 (Weed-killing rate is 100%.) | 5 (Weed-killing rate is 100%.) | Herbicidal effect Am [21]: 5 (Weed-killing rate is 100%.) |
| Cc1c(Cl)cccc1NC(=O)c1cc2ccsc2nc1C(=O)NC1CCCC1 [compound 811] | 5 (Crop-killing rate is 100%.) | 4 (Crop-killing rate is 90-99%.) | 5 (Weed-killing rate is 100%.) | 5 (Weed-killing rate is 100%.) | 5 (Weed-killing rate is 100%.) | 5 (Weed-killing rate is 100%.) | 5 (Weed-killing rate is 100%.) | 5 (Weed-killing rate is 100%.) | 5 (Weed-killing rate is 100%.) | 5 (Weed-killing rate is 100%.) | 5 (Weed-killing rate is 100%.) | 5 (Crop-killing rate is 100%.) | 4 (Crop-killing rate is 90-99%.) | 5 (Weed-killing rate is 100%.) | 5 (Weed-killing rate is 100%.) | 4 (Weed-killing rate is 90-99%.) | 5 (Weed-killing rate is 100%.) | 5 (Weed-killing rate is 100%.) | 4 (Weed-killing rate is 90-99%.) | 5 (Weed-killing rate is 100%.) | Herbicidal effect Am [21]: 5 (Weed-killing rate is 100%.) |
| CCCNC(=O)c1nc2scc(Br)c2cc1C(=O)Nc1c(CC)ccc(Cl)c1CC [compound 814] | 4 (Crop-killing rate is 90-99%.) | 3 (Crop-killing rate is 70-89%.) | 5 (Weed-killing rate is 100%.) | 5 (Weed-killing rate is 100%.) | 5 (Weed-killing rate is 100%.) | 4 (Weed-killing rate is 90-99%.) | 5 (Weed-killing rate is 100%.) | 5 (Weed-killing rate is 100%.) | 4 (Weed-killing rate is 90-99%.) | 5 (Weed-killing rate is 100%.) | 5 (Weed-killing rate is 100%.) | 4 (Crop-killing rate is 90-99%.) | 3 (Crop-killing rate is 70-89%.) | 5 (Weed-killing rate is 100%.) | 5 (Weed-killing rate is 100%.) | 4 (Weed-killing rate is 90-99%.) | 5 (Weed-killing rate is 100%.) | 5 (Weed-killing rate is 100%.) | 4 (Weed-killing rate is 90-99%.) | 5 (Weed-killing rate is 100%.) | Herbicidal effect Am [21]: 5 (Weed-killing rate is 100%.) |
| CCCNC(=O)c1nc2c(ccn2C)cc1C(=O)Nc1c(CC)ccc(Cl)c1CC [compound 824] | 5 (Crop-killing rate is 100%.) | 4 (Crop-killing rate is 90-99%.) | 5 (Weed-killing rate is 100%.) | 5 (Weed-killing rate is 100%.) | 5 (Weed-killing rate is 100%.) | 5 (Weed-killing rate is 100%.) | 5 (Weed-killing rate is 100%.) | 5 (Weed-killing rate is 100%.) | 5 (Weed-killing rate is 100%.) | 5 (Weed-killing rate is 100%.) | 5 (Weed-killing rate is 100%.) | 5 (Crop-killing rate is 100%.) | 5 (Crop-killing rate is 100%.) | 5 (Weed-killing rate is 100%.) | 5 (Weed-killing rate is 100%.) | 5 (Weed-killing rate is 100%.) | 5 (Weed-killing rate is 100%.) | 5 (Weed-killing rate is 100%.) | 5 (Weed-killing rate is 100%.) | 5 (Weed-killing rate is 100%.) | Herbicidal effect Am [21]: 5 (Weed-killing rate is 100%.) |
